Results on four molecules are retold here after paper PMC11911205 (Frontiers in Pharmacology, 2025).

Like-named read-outs stand apart in the source and are kept apart here.

Data set [1] deals with rat liver microsomes (RLM). The data set is described as follows: Vandetanib metabolism (N-demethyl vandetanib formation) and its inhibition by luteolin in rat liver microsomes. To be noted: RLM, Lineweaver-Burk plot.
Description: (§1) Considering that RLM or HLM microsome may have different metabolic rates, we conducted experiments on enzyme and incubation time before the start of the experiment. […] A rate-time graph was created to select the most suitable concentration and incubation time within the linear range of variation. […] The drug was dissolved in DMSO.
(§2) The relationship between reaction rate and substrate concentration based on the Michaelis-Menten equation was calculated, and the Km value through nonlinear fitting was determined. […] The relationship between inhibitor concentration and reaction rate was plotted after the reaction rate at different inhibitor concentrations was determined, and then the IC50 value through nonlinear regression analysis was calculated. […] The above mixture was incubated at 37°C for 5 min, after which NADPH was added to start the reaction process for 30 min, and it was finally cooled to −80°C to stop the reaction. 400 μL of acetonitrile and 20 μL of IS working solution (200 ng/mL) were incorporated into the mixture. Following vortexed and centrifugated at 13,000 rpm for 10 min, the supernatant was obtained for UPLC-MS/MS analysis.
(§3) Km, IC50, Lineweaver-Burk plots and mean plasma concentration-time curves were generated using GraphPad Prism 9.5 software. […] SPSS (version 26.0; SPSS Inc., Chicago, IL, United States) was used for data processing, and t-test was employed to determine whether there was a significant difference.
Data set [2] deals with vandetanib metabolism (N-demethyl vandetanib formation) in rat liver microsomes. The description is as above. To be noted: rat, rat liver microsomes, pH 7.4, probe vandetanib at its Km value in RLM.
Description: as §1, §2, §3
In data set [3] the target is human liver microsomes (HLM) (Homo sapiens, UniProt P08684).
Sequence of human liver microsomes (HLM) (P08684 2-503): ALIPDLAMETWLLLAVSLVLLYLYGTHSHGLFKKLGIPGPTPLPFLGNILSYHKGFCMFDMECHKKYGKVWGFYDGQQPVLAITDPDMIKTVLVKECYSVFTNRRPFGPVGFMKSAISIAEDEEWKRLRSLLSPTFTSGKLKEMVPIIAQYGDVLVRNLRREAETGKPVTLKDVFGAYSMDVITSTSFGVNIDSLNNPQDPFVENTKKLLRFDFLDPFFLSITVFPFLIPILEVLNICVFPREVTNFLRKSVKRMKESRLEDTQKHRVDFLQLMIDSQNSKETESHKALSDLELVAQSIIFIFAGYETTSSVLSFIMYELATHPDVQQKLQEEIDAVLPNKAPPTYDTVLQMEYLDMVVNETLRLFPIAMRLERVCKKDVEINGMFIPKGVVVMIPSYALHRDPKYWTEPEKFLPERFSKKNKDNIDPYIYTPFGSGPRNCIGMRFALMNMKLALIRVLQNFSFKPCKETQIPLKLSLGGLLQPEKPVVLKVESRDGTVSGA
Description: as §1, §2, §3
Data set [4] concerns the target vandetanib metabolism (N-demethyl vandetanib formation) in human liver microsomes (Homo sapiens, UniProt P08684). The data set is described as follows: Vandetanib metabolism (N-demethyl vandetanib formation) and its inhibition by luteolin in human liver microsomes. To be noted: pH 7.4.
Description: as §1, §2, §3
The nature of data set [5]: Pharmacokinetics of vandetanib and N-demethyl vandetanib in SD rats with or without luteolin (UPLC-MS/MS of plasma). Format: in vivo, Sprague-Dawley (SD) rats. To be noted: for AUC(0-t) / AUC(0-∞) / CLz/F / Cmax / Tmax / t1/2 / AUC(0-inf) / half-life / CL/F: plasma; for CL/F: read-out: CLz/F (converted). Here is the method: Male SD rats weighing 180–220 g were provided by the Laboratory Animal Center of the First Affiliated Hospital of Wenzhou Medical University (Zhejiang, China). They were housed under standard conditions with a temperature of 20°C–26°C, a relative humidity of 55% ± 15%, and a 12-h dark/light cycle. The rats had free access to water and no other drugs were given during the feeding period, and were prohibited from eating for 12 h before the experiment. The experimental procedures and protocols were in accordance with animal ethics standards and approved by the Institutional Animal Care and Use Committee of the First Affiliated Hospital of Wenzhou Medical University (Zhejiang, China).
Therefore, we adopted the same dosages to ensure the comparability and validity of the experimental results. 0.3 mL tail vein blood was collected at 0.5, 1, 1.5, 2, 3, 4, 6, 8, 12, 24, 48 and 80 h post-vandetanib administration. The blood samples were centrifuged at 4°C at 13,000 rpm for 10 min to obtain plasma, which was aspirated and stored at −80°C until analysis.

Details of data set [6]: method as in Martin et al., 2011. Particulars: ref Martin et al., 2011, cited from earlier work.
Data set [7] can be described thus: in vitro. To be noted: rat, pH 7.4.
Description: as §1, §2, §3
Details of data set [8]: method as in Indra et al., 2020. To be noted: ref Indra et al., 2020; cited from earlier work.
The mark [9] stands for this setting: inhibition of vandetanib metabolism.
[10] abbreviates: luteolin 30 mg/kg by gavage 30 min before vandetanib 25 mg/kg by gavage.
Where [11] appears, read: vandetanib 25 mg/kg by gavage alone (control group).
Where [12] appears, read: luteolin 30 mg/kg + vandetanib 25 mg/kg vs vandetanib alone.
The mark [13] stands for this setting: male, Sprague-Dawley, rat, po, 25 mg/kg, luteolin 30 mg/kg by gavage 30 min before vandetanib 25 mg/kg by gavage.
[14] abbreviates: male, Sprague-Dawley, rat, po, 25 mg/kg, vandetanib 25 mg/kg by gavage alone (control group).

Sequence of vandetanib metabolism (N-demethyl vandetanib formation) in human liver microsomes (P08684 2-503): as above

Consider `O=c1cc(-c2ccc(O)c(O)c2)oc2cc(O)cc(O)c12` [Luteolin], for which the inhibition mechanism result in data set [1] is “mixture of non-competitive inhibition and competitive inhibition”. Besides, in data set [1] (setting [9]), the affinity corresponds to a Ki of 2330 nM and the α came to 6.68 µM. The molecule also had an IC50 at 30 min in data set [2] of 8.56 µM. Also, in data set [3], the inhibition type entry is “mixture of non-competitive and un-competitive”; the α amounted to 0.28 µM. The molecule also returned an IC50 at 30 min in data set [4] of 15.8 µM.
For `COc1cc2c(Nc3ccc(Br)cc3F)ncnc2cc1OCC1CCNCC1` [N-demethyl vandetanib], in data set [5] (setting [10]), the “AUC(0-t)” value turned out to be 0.99882 ± 0.27665 µg·h/mL, the “AUC(0-∞)” value is listed as 1,118.64 ± 320.66 μg/L*h, the CLz/F came to 23.83 ± 6.50 L/h/kg and the Cmax is 22.41 ± 5.84 µg/L. In addition, in data set [5] (setting [10]), the Tmax stood at 11.20 ± 1.79 h and the t1/2 was 24.33 ± 5.63 h. Further, in data set [5] (setting [11]), the “AUC(0-t)” value is 0.93888 ± 0.14407 µg·h/mL, the “AUC(0-∞)” value is reported as 1,163.14 ± 157.34 μg/L*h, the CLz/F is on record as 21.83 ± 3.10 L/h/kg and the Cmax amounted to 19.56 ± 3.03 µg/L. Further, in data set [5] (setting [11]), the Tmax is reported as 14.40 ± 5.37 h and the t1/2 is reported as 34.04 ± 15.69 h.
For `COc1cc2c(Nc3ccc(Br)cc3F)ncnc2cc1OCC1CCN(C)CC1` [Vandetanib], in data set [5] (setting [12]), the “increase of AUC(0-t) of vandetanib in luteolin group compared with the control group” value was 18.1%. For the same molecule, the “increase of Cmax of vandetanib in luteolin group compared with the control group” value in data set [5] (setting [12]) is on record as 32.8%. Besides, the AUC(0-inf) in data set [5] (setting [13]) came to 41100 ng·h/mL; in data set [5] (setting [14]), 36100 ng·h/mL. Also, the values for the half-life in data set [5] (setting [13]) and in data set [5] (setting [14]) were 1380 ± 241 min and 1590 ± 261 min, respectively. Further, the AUC(0-t) in data set [5] (male, Sprague-Dawley, rat, po, 25 mg/kg, luteolin 30 mg/kg by gavage 30 min before vandetanib 25 mg/kg by gavage, read-out: AUC(0-t)) was 37.1 µg·h/mL; in data set [5] (male, Sprague-Dawley, rat, po, 25 mg/kg, vandetanib 25 mg/kg by gavage alone (control group), read-out: AUC(0-t)) it was 31.4 µg·h/mL. In addition, the CL/F in data set [5] (setting [13]) is 10.2 mL/min/kg; in data set [5] (setting [14]), 11.7 mL/min/kg. Moreover, the peak concentration (Cmax) in data set [5] (male, Sprague-Dawley, rat, po, 25 mg/kg, luteolin 30 mg/kg by gavage 30 min before vandetanib 25 mg/kg by gavage, read-out: Cmax) is 1140 µg/L; in data set [5] (male, Sprague-Dawley, rat, po, 25 mg/kg, vandetanib 25 mg/kg by gavage alone (control group), read-out: Cmax), 859 ± 125 µg/L. For the same molecule, the Tmax in data set [5] (male, Sprague-Dawley, rat, po, 25 mg/kg, luteolin 30 mg/kg by gavage 30 min before vandetanib 25 mg/kg by gavage, read-out: Tmax) was 7.6 ± 2.61 h; in data set [5] (male, Sprague-Dawley, rat, po, 25 mg/kg, vandetanib 25 mg/kg by gavage alone (control group), read-out: Tmax) it was 8.8 ± 3.03 h. Moreover, the “levels of vandetanib exposure” value in data set [6] (combined with itraconazole, a potent CYP3A4 inhibitor) is listed as “increased”. Besides, the AUC of vandetanib entry in data set [6] (combined with rifampicin, a strong inducer of CYP3A4) is recorded as “significantly decreased”. The Km at 30 min in data set [7] is 9.41 µM.
As for `COc1cc2c(Nc3ccc(Br)cc3F)ncnc2cc1OCC1CC[N+](C)([O-])CC1` (stereo not shown) [vandetanib N-oxide], the “less activity compared to the original compound (vandetanib)” value in data set [8] is listed as “over 50 times”.
